We go through 45 compounds from patent US20240228482A1, “COMPOUNDS, COMPOSITIONS AND METHODS OF TREATING CANCER” (HOTSPOT THERAPEUTICS, INC., priority 2021, published 2024).

The target in the assay is T1, CBL-B (Homo sapiens, UniProt Q13191).
T1 construct: GST
T1 sequence (Q13191 whole entry): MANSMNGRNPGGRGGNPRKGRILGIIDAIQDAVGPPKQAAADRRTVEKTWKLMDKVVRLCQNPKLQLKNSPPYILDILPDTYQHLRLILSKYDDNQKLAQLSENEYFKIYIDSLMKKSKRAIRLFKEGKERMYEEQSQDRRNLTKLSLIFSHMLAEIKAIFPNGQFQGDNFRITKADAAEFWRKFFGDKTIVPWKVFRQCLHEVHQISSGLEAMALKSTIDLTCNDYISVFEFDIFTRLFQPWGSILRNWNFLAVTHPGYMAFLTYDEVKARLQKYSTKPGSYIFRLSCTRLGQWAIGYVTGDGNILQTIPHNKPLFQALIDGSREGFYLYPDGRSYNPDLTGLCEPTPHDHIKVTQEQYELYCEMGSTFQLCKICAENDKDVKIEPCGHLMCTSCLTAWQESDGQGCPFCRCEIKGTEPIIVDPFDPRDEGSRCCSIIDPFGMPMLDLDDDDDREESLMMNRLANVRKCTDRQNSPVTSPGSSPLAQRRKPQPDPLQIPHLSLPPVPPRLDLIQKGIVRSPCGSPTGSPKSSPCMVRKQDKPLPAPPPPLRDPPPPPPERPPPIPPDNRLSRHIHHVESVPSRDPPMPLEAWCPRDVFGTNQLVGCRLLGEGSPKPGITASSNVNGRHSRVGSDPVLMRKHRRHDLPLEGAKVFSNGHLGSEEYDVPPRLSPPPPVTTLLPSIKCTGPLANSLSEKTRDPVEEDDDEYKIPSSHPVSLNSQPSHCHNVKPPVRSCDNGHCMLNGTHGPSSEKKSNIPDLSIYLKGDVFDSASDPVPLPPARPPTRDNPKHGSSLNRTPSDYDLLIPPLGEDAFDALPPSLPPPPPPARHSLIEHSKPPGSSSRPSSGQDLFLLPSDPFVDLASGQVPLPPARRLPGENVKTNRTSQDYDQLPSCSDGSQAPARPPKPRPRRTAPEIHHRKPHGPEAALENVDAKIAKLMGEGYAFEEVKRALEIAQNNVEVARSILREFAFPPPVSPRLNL
The assay is described as follows: CBL-B TR-FRET IC50 screening (E1/E2 ubiquitination, Biotin-Ubiquitin, Anti GST-Tb donor / Streptavidin-d2 acceptor). It counts as biochemical. As to conditions: CBL-B 10 nM final; 11-point titration from 100 uM; binned A-F; read-out: CBL-B TR-FRET activity IC50. On the technique in general: In TR-FRET formats the signal depends on donor and acceptor labels being close together.
Turning to `CC(c1cc(C(F)(F)F)c2cn(-c3cccc([C@H](c4nncn4C)C4CCC4)c3)c(=O)n2c1)N1CCC[C@H](C)C1` (single isomer, unassigned) [Compound 194], the IC50 (as a rule, the concentration that inhibits the measured activity by half) was < 100 nM. For the compound `C[C@H]1CCCN(C(c2cc(C(F)(F)F)c3cn(-c4cccc(C5(Cc6nncn6C)COC5)c4)c(=O)n3c2)C(F)(F)F)C1` (single isomer, unassigned) [Compound 195], the IC50 lay within 100 to 300 nM.

As to `C[C@H]1CCCN(C(c2cc(C(F)(F)F)c3cn(-c4cccc(C5(Cc6nncn6C)COC5)c4)c(=O)n3c2)C(F)(F)F)C1` (single isomer, unassigned) [Compound 196], the IC50 fell in the range of 301 to 1000 nM. For the compound `C[C@H]1CCCN(Cc2cc(C(F)(F)F)c3cn(-c4cccc([C@H](c5nncs5)C5CCC5)c4)c(=O)n3c2)C1` (single isomer, unassigned) [Compound 202], the IC50 is < 100 nM.

Regarding `C[C@H]1CCCN(Cc2cc(C(F)(F)F)c3cn(-c4cccc([C@@H](c5nncs5)C5CCC5)c4)c(=O)n3c2)C1` (single isomer, unassigned) [Compound 203], the IC50 was 301 to 1000 nM. Under `C[C@@H]1CN(Cc2cc(C(F)(F)F)c3cn(-c4cccc([C@]5(Cc6nncn6C)C[C@H](C#N)C5)c4)c(=O)n3c2)CCC1(F)F` (single isomer, unassigned) [Compound 204] stands < 100 nM; under `C[C@H]1CN(Cc2cc(C(F)(F)F)c3cn(-c4cccc([C@]5(Cc6nncn6C)C[C@H](C#N)C5)c4)c(=O)n3c2)CCC1(F)F` (single isomer, unassigned) [Compound 205], < 100 nM. As for `C[C@@H]1CN(Cc2cc(C(F)(F)F)c3cn(-c4cccc([C@]5(c6nncn6C)C[C@@H](C)C5)c4)c(=O)n3c2)CCO1` (single isomer, unassigned) [Compound 213], the IC50 is < 100 nM.

Consider `[2H]C([2H])([2H])n1cnnc1[C@]1(c2cccc(-n3cc4c(C(F)(F)F)cc(CN5CCC[C@H](C)C5)cn4c3=O)c2)C[C@@H](C)C1` (single isomer, unassigned) [Compound 214], for which the IC50 was < 100 nM.

For `Cn1cnnc1[C@]1(c2cccc(-n3cc4c(C(F)(F)F)cc(CN5CCC6(CC6)C5)cn4c3=O)c2)C[C@@H](C)C1` (single isomer, unassigned) [Compound 215], the IC50 was < 100 nM. Under `Cn1cnnc1[C@]1(c2cccc(-n3cc4c(C(F)(F)F)cc(CN5CCC(C)(F)CC5)cn4c3=O)c2)C[C@@H](C)C1` (single isomer, unassigned) [Compound 217] stands < 100 nM; under `Cn1cnnc1[C@]1(c2cccc(-n3cc4c(C(F)(F)F)cc(CN5CCC6(CC6)C5)cn4c3=O)c2)C[C@H](C)C1` (single isomer, unassigned) [Compound 222], < 100 nM; under `C[C@H]1CCCN(Cc2cc(C(F)(F)F)c3cn(-c4cc([C@@H](c5nncn5C)C5CCC5)cc(C(F)(F)F)c4)c(=O)n3c2)C1` (single isomer, unassigned) [Compound 223], < 100 nM. As to `C[C@H]1CCCN(Cc2cc(C(F)(F)F)c3cn(-c4cc([C@H](c5nncn5C)C5CCC5)cc(C(F)(F)F)c4)c(=O)n3c2)C1` (single isomer, unassigned) [Compound 224], the IC50 was > 10000 nM. `Cn1cnnc1[C@]1(c2cccc(-n3cc4c(C(F)(F)F)cc(CN5CC[C@H](F)C5)cn4c3=O)c2)C[C@H](C)C1` (single isomer, unassigned) [Compound 226]: the IC50 was < 100 nM.

On to `Cn1cnnc1[C@]1(c2cccc(-n3cc4c(C(F)(F)F)cc(CN5CCC(C)(F)CC5)cn4c3=O)c2)C[C@H](C)C1` (single isomer, unassigned) [Compound 227], for which the IC50 was < 100 nM. With `C[C@@H]1CN([C@H](C)c2cc(C(F)(F)F)c3cn(-c4cccc([C@@H](c5nncn5C)C5CCC5)c4)c(=O)n3c2)CCO1` (single isomer, unassigned) [Compound 231] the figure was 3000 to 10000 nM; with `C[C@@H]1CN([C@@H](C)c2cc(C(F)(F)F)c3cn(-c4cccc([C@@H](c5nncn5C)C5CCC5)c4)c(=O)n3c2)CCO1` (single isomer, unassigned) [Compound 232], 301 to 1000 nM; with `C[C@@H]1CN([C@H](C)c2cc(C(F)(F)F)c3cn(-c4cccc([C@H](c5nncn5C)C5CCC5)c4)c(=O)n3c2)CCO1` (single isomer, unassigned) [Compound 233], < 100 nM. With `C[C@@H]1CN([C@@H](C)c2cc(C(F)(F)F)c3cn(-c4cccc([C@H](c5nncn5C)C5CCC5)c4)c(=O)n3c2)CCO1` (single isomer, unassigned) [Compound 234] the figure was < 100 nM; with `COC1CCN(Cc2cc(C(F)(F)F)c3cn(-c4cccc([C@@H](c5nncn5C)C5CCC5)c4)c(=O)n3c2)CC1` (single isomer, unassigned) [Compound 235], 1000 to 3000 nM; with `Cn1cnnc1[C@]1(c2cccc(-n3cc4c(C(F)(F)F)cc(CN5CC6(CC6)C5)cn4c3=O)c2)C[C@H](C)C1` (single isomer, unassigned) [Compound 236], < 100 nM. Under `Cn1cnnc1[C@]1(c2cccc(-n3cc4c(C(F)(F)F)cc(CN5CCC(F)CC5)cn4c3=O)c2)C[C@H](C)C1` (single isomer, unassigned) [Compound 237] stands < 100 nM. With `C[C@H]1CCCN(Cc2cc(C(F)(F)F)c3cn(-c4cc(F)cc([C@@H](c5nncn5C)C5CCC5)c4)c(=O)n3c2)C1` (single isomer, unassigned) [Compound 242], the IC50 was > 10000 nM.

Regarding `C[C@H]1CCCN(Cc2cc(C(F)(F)F)c3cn(-c4cc(F)cc([C@H](c5nncn5C)C5CCC5)c4)c(=O)n3c2)C1` (single isomer, unassigned) [Compound 243], the IC50 was < 100 nM.

As to `C[C@H]1CCCN([C@@H](c2cc(C(F)(F)F)c3cn(-c4cccc([C@@H](c5nncn5C)C5CCC5)c4)c(=O)n3c2)C(F)(F)F)C1` (single isomer, unassigned) [Compound 256], the IC50 was > 10000 nM. Regarding `C[C@H]1CCCN([C@H](c2cc(C(F)(F)F)c3cn(-c4cccc([C@@H](c5nncn5C)C5CCC5)c4)c(=O)n3c2)C(F)(F)F)C1` (single isomer, unassigned) [Compound 257], the IC50 is > 10000 nM. In the case of `CO[C@H]1CCCCN(Cc2cc(C(F)(F)F)c3cn(-c4cccc([C@H](c5nncn5C)C5CCC5)c4)c(=O)n3c2)C1` (single isomer, unassigned) [Compound 261], the IC50 is < 100 nM. For `CO[C@@H]1CCCCN(Cc2cc(C(F)(F)F)c3cn(-c4cccc([C@H](c5nncn5C)C5CCC5)c4)c(=O)n3c2)C1` (single isomer, unassigned) [Compound 262], the IC50 was < 100 nM.

As for `CO[C@H]1CCCN(Cc2cc(C(F)(F)F)c3cn(-c4cccc([C@H](c5nncn5C)C5CCC5)c4)c(=O)n3c2)CC1` (single isomer, unassigned) [Compound 263], the IC50 is < 100 nM.

Regarding `CO[C@@H]1CCCN(Cc2cc(C(F)(F)F)c3cn(-c4cccc([C@H](c5nncn5C)C5CCC5)c4)c(=O)n3c2)CC1` (single isomer, unassigned) [Compound 264], the IC50 was < 100 nM. With `Cn1cnnc1[C@@H](c1cccc(-n2cc3c(C(F)(F)F)cc(CN4CCC[C@H](C(F)(F)F)C4)cn3c2=O)c1)C1CCC1` (single isomer, unassigned) [Compound 271] the figure was < 100 nM; with `Cn1cnnc1[C@@H](c1cccc(-n2cc3c(C(F)(F)F)cc(CN4CCC[C@@H](C(F)(F)F)C4)cn3c2=O)c1)C1CCC1` (single isomer, unassigned) [Compound 272], < 100 nM; with `C[C@H]1CCCCN(Cc2cc(C(F)(F)F)c3cn(-c4cccc([C@H](c5nncn5C)C5CCC5)c4)c(=O)n3c2)C1` (single isomer, unassigned) [Compound 273], < 100 nM. For `C[C@@H]1CCCCN(Cc2cc(C(F)(F)F)c3cn(-c4cccc([C@H](c5nncn5C)C5CCC5)c4)c(=O)n3c2)C1` (single isomer, unassigned) [Compound 274], the IC50 was < 100 nM. `Cc1scnc1[C@H](c1cccc(-n2cc3c(C(F)(F)F)cc(CN4CCC[C@H](C)C4)cn3c2=O)c1)C1CCC1` (single isomer, unassigned) [Compound 282]: the IC50 was > 10000 nM. With `Cc1scnc1[C@@H](c1cccc(-n2cc3c(C(F)(F)F)cc(CN4CCC[C@H](C)C4)cn3c2=O)c1)C1CCC1` (single isomer, unassigned) [Compound 283] the figure was > 10000 nM.

In the case of `Cn1cnnc1[C@@H](c1cccc(-n2cc3c(C(F)(F)F)cc(CN4CC[C@@H](C(F)(F)F)C4)cn3c2=O)c1)C1CCC1` (single isomer, unassigned) [Compound 285], the IC50 lay within 100 to 300 nM. Under `C[C@H]1CCCN(Cc2cc(C(F)(F)F)c3cn(-c4cc(C#N)cc([C@@H](c5nncn5C)C5CCC5)c4)c(=O)n3c2)C1` (single isomer, unassigned) [Compound 288] stands < 100 nM; under `C[C@H]1CCCN(Cc2cc(C(F)(F)F)c3cn(-c4cc(C#N)cc([C@H](c5nncn5C)C5CCC5)c4)c(=O)n3c2)C1` (single isomer, unassigned) [Compound 289], > 10000 nM. Turning to `C[C@H]1CCCN(Cc2cc(C(F)(F)F)c3cn(-c4cccc([C@]5(c6nncs6)C[C@@H](C)C5)c4)c(=O)n3c2)C1` (single isomer, unassigned) [Compound 292], the IC50 lay in the range of 100 to 300 nM. On to `C[C@H]1CCCN(Cc2cc(C(F)(F)F)c3cn(-c4cccc([C@]5(c6nncs6)C[C@H](C)C5)c4)c(=O)n3c2)C1` (single isomer, unassigned) [Compound 293], for which the IC50 fell in the range of 100 to 300 nM.

`C[C@H]1CCCN(Cc2cc(C(F)(F)F)c3cn(-c4cccc([C@]5(c6nncn6C)C[C@H](O)C5)c4)c(=O)n3c2)C1` (single isomer, unassigned) [Compound 301]: the IC50 was 100 to 300 nM. With `Cc1conc1[C@H](c1cccc(-n2cc3c(C(F)(F)F)cc(CN4CCC[C@H](C)C4)cn3c2=O)c1)C1CCC1` (single isomer, unassigned) [Compound 302] the figure was 301 to 1000 nM. Take `Cc1conc1[C@@H](c1cccc(-n2cc3c(C(F)(F)F)cc(CN4CCC[C@H](C)C4)cn3c2=O)c1)C1CCC1` (single isomer, unassigned) [Compound 303]: the IC50 is > 10000 nM.
